pIC50: −log10 of the molar value. Like-named read-outs stand apart in the source and are kept apart here.
Target: T1, human CTPS1 (Homo sapiens, UniProt P17812)
T1 sequence (P17812 1-591): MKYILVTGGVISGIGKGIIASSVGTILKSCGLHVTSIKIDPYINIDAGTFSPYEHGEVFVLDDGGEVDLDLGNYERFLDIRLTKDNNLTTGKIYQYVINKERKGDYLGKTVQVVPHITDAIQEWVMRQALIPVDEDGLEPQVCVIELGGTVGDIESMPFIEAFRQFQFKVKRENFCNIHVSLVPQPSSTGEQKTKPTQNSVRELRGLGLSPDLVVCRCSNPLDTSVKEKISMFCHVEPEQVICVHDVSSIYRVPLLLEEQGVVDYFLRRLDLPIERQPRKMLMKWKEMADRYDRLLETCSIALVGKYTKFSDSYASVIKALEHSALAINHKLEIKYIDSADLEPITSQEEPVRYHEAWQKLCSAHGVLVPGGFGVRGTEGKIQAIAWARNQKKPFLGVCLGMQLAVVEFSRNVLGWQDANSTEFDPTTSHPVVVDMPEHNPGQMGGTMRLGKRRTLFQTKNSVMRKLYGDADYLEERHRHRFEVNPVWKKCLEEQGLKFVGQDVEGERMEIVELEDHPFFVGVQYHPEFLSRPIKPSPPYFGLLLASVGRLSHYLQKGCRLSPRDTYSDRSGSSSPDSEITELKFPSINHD
Assay: ADP-Glo assay, human CTPS1 enzyme inhibition
Format: biochemical
Conditions: read-out: ADP-Glo_WT_hCTPS1—25 nM_IC50 (IC50)
Summary of the method: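 Full-length tagged human CTPS1 (25 nM) pre-incubated 10 min at 25° C with compound, then 10 min with ATP (120 μM) and UTP (160 μM); reaction started with L-glutamine (100 μM) and GTP (60 μM), 1% DMSO, in HEPES pH 7.4, 10 mM Mg2+, 5 mM KCl, 2 mM DTT. Run within linear phase at 25° C; ADP measured by ADP-Glo luminescence.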

[1] = wild-type human CTPS1, 25 nM enzyme, ADP-Glo

| Structure (SMILES) | pIC50 [1] | pIC50 (wild-type human CTPS1 25 nM, ATP 120 μM, UTP 160 μM, GTP 60 μM, L-glutamine 100 μM, 25 degrees C.) |
| --- | --- | --- |
| CCOc1cncc(-c2cnc(C(=O)N[C@@H](c3cc(NS(=O)(=O)C4CC4)ccn3)[C@@H]3CCN(C4CC4)C3)s2)n1 [I-114, N-((R)-(4-(cyclopropanesulfonamido)pyridin-2-yl)((R)-1-cyclopropylpyrrolidin-3-yl)methyl)-5-(6-ethoxypyrazin-2-yl)thiazole-2-carboxamide] | 7.60 to 8.30 |  |
| CCOc1cncc(-c2cnc(C(=O)N[C@H](CN3CCCC3)c3cccc(NS(=O)(=O)C(F)F)c3)s2)n1 (single isomer, unassigned) [I-39] | 7.30 to 7.60 |  |
| CCOc1cncc(-c2cnc(C(=O)N[C@@H](CN3[C@@H]4CC[C@H]3COC4)c3cc(NS(=O)(=O)C4CC4)ccn3)s2)n1 (single isomer, unassigned) [I-36] | 7.00 to 7.30 |  |
| CCOc1cncc(-c2cnc(C(=O)N[C@@H](c3cc(NS(=O)(=O)C4CC4)ccn3)[C@@H](C)O)s2)n1 [I-265, N-((1S,2R)-1-(4-(cyclopropanesulfonamido)pyridin-2-yl)-2-hydroxypropyl)-5-(6-ethoxypyrazin-2-yl)thiazole-2-carboxamide] | 7.60 to 8.30 |  |
| CCOc1cncc(-c2cnc(C(=O)N[C@@H](c3cc(NS(=O)(=O)C4CC4)ccn3)C3CCOCC3)s2)n1 [I-19, (R)—N-((4-(cyclopropanesulfonamido)pyridin-2-yl)(tetrahydro-2H-pyran-4-yl)methyl)-5-(6-ethoxypyrazin-2-yl)thiazole-2-carboxamide] | 7.60 to 8.30 |  |
| CCOc1cncc(-c2cnc(C(=O)N[C@@H](CN3CC4(CCC4)C3)c3cc(NS(=O)(=O)C4CC4)ccn3)s2)n1 [I-153, (S)-N-(1-(4-(cyclopropanesulfonamido)pyridin-2-yl)-2-(2-azaspiro[3.3]heptan-2-yl)ethyl)-5-(6-ethoxypyrazin-2-yl)thiazole-2-carboxamide] | 7.30 to 7.60 |  |
| CCOc1cncc(-c2cnc(C(=O)N[C@@H](c3cc(NS(=O)(=O)C4CC4)ccn3)[C@H](C)O)s2)n1 [I-270, N-((1S,2S)-1-(4-(cyclopropanesulfonamido)pyridin-2-yl)-2-hydroxypropyl)-5-(6-ethoxypyrazin-2-yl)thiazole-2-carboxamide] | ≥ 8.30 |  |
| CC(C)(O)[C@@H](NC(=O)c1ncc(-c2cnn3ccc(Cl)cc23)s1)c1cc(NS(=O)(=O)C2CC2)ccn1 [I-278, (S)-5-(5-chloropyrazolo[1,5-a]pyridin-3-yl)-N-(1-(4-(cyclopropanesulfonamido)pyridin-2-yl)-2-hydroxy-2-methylpropyl)thiazole-2-carboxamide] | 7.00 to 7.30 |  |
| O=C(N[C@H](CN1CCOCC1)c1cc(NS(=O)(=O)C2CC2)ccn1)c1ncc(-c2cnn3ccc(Cl)cc23)s1 [I-146, (R)-5-(5-chloropyrazolo[1,5-a]pyridin-3-yl)-N-(1-(4-(cyclopropanesulfonamido)pyridin-2-yl)-2-morpholinoethyl)thiazole-2-carboxamide] | 7.60 to 8.30 |  |
| CCOc1cncc(-c2cnc(C(=O)N[C@@]3(c4cc(NS(=O)(=O)C5CC5)ccn4)CCOC3)s2)n1 (single isomer, unassigned) [I-71] | 7.60 to 8.30 |  |
| CCOc1cncc(-c2cnc(C(=O)N[C@H](c3cccc(NS(=O)(=O)C(F)F)c3)[C@H](C)O)s2)n1 [I-289, N-((1R,2S)-1-(3-((difluoromethyl)sulfonamido)phenyl)-2-hydroxypropyl)-5-(6-ethoxypyrazin-2-yl)thiazole-2-carboxamide] | 7.60 to 8.30 |  |
| CCOc1cncc(-c2cnc(C(=O)N[C@H](CN(C)C)c3cccc(NS(=O)(=O)C(F)F)c3)s2)n1 [I-213, (S)-N-(1-(3-((difluoromethyl)sulfonamido)phenyl)-2-(dimethylamino)ethyl)-5-(6-ethoxypyrazin-2-yl)thiazole-2-carboxamide] | 7.60 to 8.30 |  |
| CCOc1cncc(-c2cnc(C(=O)N[C@H](c3cc(NS(=O)(=O)C4CC4)ccn3)[C@H]3CCCO3)s2)n1 [I-59, N-((R)-(4-(cyclopropanesulfonamido)pyridin-2-yl)((R)-tetrahydrofuran-2-yl)methyl)-5-(6-ethoxypyrazin-2-yl)thiazole-2-carboxamide] | 7.30 to 7.60 |  |
| CCOc1cncc(-c2ccc(C(=O)N[C@H](COC)c3cc(NS(=O)(=O)C4CC4)ccn3)c(F)c2)n1 [I-283, (S)-N-(1-(4-(cyclopropanesulfonamido)pyridin-2-yl)-2-methoxyethyl)-4-(6-ethoxypyrazin-2-yl)-2-fluorobenzamide] | 7.00 to 7.30 |  |
| CCOc1cncc(-c2cnc(C(=O)N[C@@H](CN3CCN(C)C(=O)C3)c3cc(NS(=O)(=O)C4CC4)ccn3)s2)n1 [I-147, (S)-N-(1-(4-(cyclopropanesulfonamido)pyridin-2-yl)-2-(4-methyl-3-oxopiperazin-1-yl)ethyl)-5-(6-ethoxypyrazin-2-yl)thiazole-2-carboxamide] | 7.60 to 8.30 |  |
| CCOc1cncc(-c2cnc(C(=O)N[C@H](c3cccc(NS(=O)(=O)C(F)F)c3)[C@@H](C)CN3CCCCC3)s2)n1 (single isomer, unassigned) [II-14] |  | 7.00 to 7.30 |
| CCOc1cncc(-c2cnc(C(=O)N[C@H](CN3C[C@@H]4CC[C@H]3CO4)c3cc(NS(=O)(=O)C4CC4)ccn3)s2)n1 [I-136, N-((R)-2-((1S,4S)-2-oxa-5-azabicyclo[2.2.2]octan-5-yl)-1-(4-(cyclopropanesulfonamido)pyridin-2-yl)ethyl)-5-(6-ethoxypyrazin-2-yl)thiazole-2-carboxamide] | 7.60 to 8.30 |  |
| CC(C)(O)[C@H](NC(=O)c1ncc(-c2cnn3ccc(Cl)cc23)s1)c1cc(NS(=O)(=O)C2CC2)ccn1 [I-277, (R)-5-(5-chloropyrazolo[1,5-a]pyridin-3-yl)-N-(1-(4-(cyclopropanesulfonamido)pyridin-2-yl)-2-hydroxy-2-methylpropyl)thiazole-2-carboxamide] | 7.00 to 7.30 |  |
| CCOc1cncc(-c2cnc(C(=O)N[C@H](CN3CC[C@@]4(CCOC4)C3)c3cc(NS(=O)(=O)C4CC4)ccn3)s2)n1 [I-126, N-((R)-1-(4-(cyclopropanesulfonamido)pyridin-2-yl)-2-((R)-2-oxa-7-azaspiro[4.4]nonan-7-yl)ethyl)-5-(6-ethoxypyrazin-2-yl)thiazole-2-carboxamide] | 7.60 to 8.30 |  |
| CCOc1cncc(-c2cnc(C(=O)N[C@H](c3cc(NS(=O)(=O)C4CC4)ccn3)[C@H](C)CO)s2)n1 [I-229, N-((1S,2S)-1-(4-(cyclopropanesulfonamido)pyridin-2-yl)-3-hydroxy-2-methylpropyl)-5-(6-ethoxypyrazin-2-yl)thiazole-2-carboxamide] | ≥ 8.30 |  |
| CCOc1cncc(-c2cnc(C(=O)N[C@@H](CN3CCCC3=O)c3cc(NS(=O)(=O)C4CC4)ccn3)s2)n1 [I-138, (S)-N-(1-(4-(cyclopropanesulfonamido)pyridin-2-yl)-2-(2-oxopyrrolidin-1-yl)ethyl)-5-(6-ethoxypyrazin-2-yl)thiazole-2-carboxamide] | 7.60 to 8.30 |  |
| CCOc1cncc(-c2ccc(C(=O)N[C@H](c3cc(NS(=O)(=O)C4CC4)ccn3)[C@@H]3CCCO3)nc2)n1 [I-68, N-((R)-(4-(cyclopropanesulfonamido)pyridin-2-yl)((S)-tetrahydrofuran-2-yl)methyl)-5-(6-ethoxypyrazin-2-yl)picolinamide] | 7.30 to 7.60 |  |
| CCOc1cncc(-c2ccc(C(=O)N[C@@H](CCN3CCCCC3)c3cc(NS(=O)(=O)C4CC4)ccn3)c(F)c2F)n1 (single isomer, unassigned) [I-6] | < 7.00 |  |
| CCOc1cncc(-c2cnc(C(=O)N[C@H](c3cc(NS(=O)(=O)C4CC4)ccn3)[C@@H](C)COC)s2)n1 [I-236, N-((1S,2R)-1-(4-(cyclopropanesulfonamido)pyridin-2-yl)-3-methoxy-2-methylpropyl)-5-(6-ethoxypyrazin-2-yl)thiazole-2-carboxamide] | ≥ 8.30 |  |
| CCOc1cncc(-c2cnc(C(=O)N[C@]3(c4cccc(NS(=O)(=O)C(F)F)c4)C[C@H](O)C3)s2)n1 [I-202, N-((1s,3s)-1-(3-((difluoromethyl)sulfonamido)phenyl)-3-hydroxycyclobutyl)-5-(6-ethoxypyrazin-2-yl)thiazole-2-carboxamide] | 7.60 to 8.30 |  |
| CCOc1cncc(-c2cnc(C(=O)N[C@H](c3cc(NS(=O)(=O)C4CC4)ccn3)[C@@H]3CCCO3)s2)n1 [I-60, N-((R)-(4-(cyclopropanesulfonamido)pyridin-2-yl)((S)-tetrahydrofuran-2-yl)methyl)-5-(6-ethoxypyrazin-2-yl)thiazole-2-carboxamide] | 7.60 to 8.30 |  |
| CCOc1cncc(-c2cnc(C(=O)N[C@]3(c4cc(NS(=O)(=O)C5CC5)ccn4)CCOC3)s2)n1 (single isomer, unassigned) [I-72] | 7.60 to 8.30 |  |
| C[C@H](O)[C@@H](NC(=O)c1ncc(-c2cnn3ccc(Cl)cc23)s1)c1cc(NS(=O)(=O)C2CC2)ccn1 [I-273, 5-(5-chloropyrazolo[1,5-a]pyridin-3-yl)-N-((1S,2S)-1-(4-(cyclopropanesulfonamido)pyridin-2-yl)-2-hydroxypropyl)thiazole-2-carboxamide] | 7.60 to 8.30 |  |

Reference: patent US20250270200A1, “CTPS1 INHIBITORS AND USES THEREOF” (Nimbus Clotho, Inc., priority 2022, published 2025)
